Test results published in patent US11371016B2, “Method for producing retinal tissue” (SUMITOMO PHARMA CO., LTD., priority 2016, dated 2022).

How the values were obtained:
[1] = tested on: human iPS cells (1231A3 strain); experiment: Differentiation of feeder-free cultured human iPS cells into retinal tissue; immunostaining of cell aggregates for Rx and Chx10; assay type: cell-based; conditions: IWR-1e 3 μM in step 2 and step 3, BMP4 1.5 nM from day 3
Procedure: Human iPS cells (1231A3 strain, obtained from Kyoto University) were cultured under feeder free according to the method described in “Scientific Reports, 4, 3594 (2014)”. As a feeder-free medium, StemFit (registered trade mark) medium (AK03N, manufactured by Ajinomoto Co., Inc.) was used, and as a feeder-free scaffold, Laminin 511-E8 (manufactured by Nippi, Inc.) was used. As a specific maintenance culture operation, subconfluent human iPS cells (1231A3 strain) were first washed with PBS, and dispersed into single cells by using TrypLE Select (manufactured by Life Technologies). Thereafter, the aforementioned human iPS cells dispersed into single cells were seeded in a plastic culture dish coated with Laminin 511-E8, and cultured under feeder-free conditions in StemFit (registered trade mark) medium in the presence of Y27632 (ROCK inhibiting substance, 10 μM). When a 6-well plate (manufactured by Iwaki, for cell culture, culture area 9.4 cm^2) was used as the aforementioned plastic culture dish, the number of plated cells for the aforementioned human iPS cells dispersed into single cells was adjusted to 1.0×10^4. One day after seeding, the entire amount of the medium was changed with StemFit (registered trade mark) medium free of Y27632. Thereafter, once in 1-2 days, the entire amount of the medium was changed with StemFit (registered trade mark) medium free of Y27632. Thereafter, the cells were cultured until 6 days after seeding when they became subconfluent (60% of culture area is covered with cells). As a specific example of step 1 (Precondition) of the present production method, the following operation was performed. Subconfluent human iPS cells (1231A3 strain) were first washed with PBS, and dispersed into single cells by using TrypLE Select (manufactured by Life Technologies). Thereafter, the aforementioned human iPS cells dispersed into single cells were seeded in a plastic culture dish (manufactured by Iwaki) coated with Laminin 511-E8, and cultured under feeder-free conditions in StemFit (registered trade mark) medium in the presence of Y27632 (ROCK inhibiting substance, 10 μM). When a 6-well plate (manufactured by Iwaki, culture area 9.4 cm^2) was used as the aforementioned plastic culture dish, the number of plated cells for the aforementioned human iPS cells dispersed into single cells was adjusted to 1.0×10^4. When a 60 mm dish (manufactured by Iwaki, for cell culture, culture area 21 cm^2) was used as the aforementioned plastic culture dish, the number of plated cells for the aforementioned human iPS cells dispersed into single cells was adjusted to 2.0×10^4. One day after seeding, the entire amount of the medium was changed with StemFit (registered trade mark) medium free of Y27632. […]

[2] = tested on: human iPS cells (1231A3 strain); experiment: as above; assay type: cell-based; conditions: day 17; for proportion of Rx positive cells in the total cells: BMP4 1.5 nM from day 3
[3] = Precondition SB431542 5 μM + SAG 300 nM in step 1, day 17

SMILES	Chx10 positive (strong positive) cells [1, 3]	proportion of Rx positive cells in the total cells [1, 3]	Chx10 positiveness in the cell aggregate ([1]; no Precondition in step 1, day 17)	proportion of Rx positive cells in the total cells ([1]; no Precondition in step 1, day 17 of suspension culture)	proportion of Rx positive cells in the total cells ([2]; Example 2 Condition 3: Precondition SAG 300 nM in step 1, IWR-1e 3 μM in step 2 and step 3)	Chx10 status of Rx positive cells (serial sections) ([2]; Example 2 Condition 3: Precondition SAG 300 nM, IWR-1e 3 μM in step 2 and step 3)	proportion of Rx positive cells in the total cells ([2]; Example 2 Condition 5: Precondition SAG 300 nM in step 1, SAG 30 nM in step 2, IWR-1e 3 μM in step 2 and step 3)	Chx10 status of Rx positive cells (serial sections) ([2]; Example 2 Condition 5: Precondition SAG 300 nM, SAG 30 nM in step 2, IWR-1e 3 μM in step 2 and step 3)	proportion of Rx positive cells in the total cells ([2]; Example 2 Condition 2: Precondition SAG 300 nM one day in step 1, no Wnt inhibiting substance, no SAG in step 2)	Chx10 status of Rx positive cells (serial sections) ([2]; Example 2 Condition 2: Precondition SAG 300 nM, no IWR-1e, no SAG in step 2)	proportion of Rx positive cells in the total cells ([2]; Example 2 Condition 4: Precondition SAG 300 nM in step 1, SAG 30 nM in step 2, no IWR-1e)	Chx10 status of Rx positive cells (serial sections) ([2]; Example 2 Condition 4: Precondition SAG 300 nM, SAG 30 nM in step 2, no IWR-1e)	neural tissue formation ([2]; Example 2 Conditions 2-5: Precondition treatment with SAG 300 nM in step 1, versus Condition 1 without Precondition (not formed))
O=C(Nc1cccc2cccnc12)c1ccc(N2C(=O)[C@@H]3[C@H](C2=O)[C@@H]2C=C[C@H]3C2)cc1 [IWR-1e, 4-[(3aR,4S,7R,7aS)-1,3,3a,4,7,7a-hexahydro-1,3-dioxo-4,7-methano-2H-isoindol-2-yl]-N-8-quinolinyl-benzamide]	about 60%	about 60%	weak Chx10 positiveness	about 40%	about 90%	Chx10 co-positive	about 90%	Chx10 co-positive					
CNC1CCC(N(Cc2cccc(-c3ccncc3)c2)C(=O)c2sc3ccccc3c2Cl)CC1 (stereo not shown) [SAG]									about 40%	Chx10 co-positive	about 60%	Chx10 co-positive	a neural tissue was formed
